Reference: PMC7525662, “Preclinical dosimetry models and the prediction of clinical doses of novel positron emission tomography radiotracers” (Scientific Reports, 2020)
Marks after values point to notes of the source that are not given here.

Experiments:
Design in all cases: species or system Sprague–Dawley rats
[1] = Residence times in rat source organs from whole-body PET, FBP reconstruction; details: in vivo, iv
Protocol: (§1) Immediately after radiotracer administration, a 240 min emission scan using 4 beds (50% overlap) was obtained using 3-dimensional 1:5 mode and re-binned as follows: 7 × 1 min, 2 × 5 min and 4 × 10 min. Throughout the PET/CT scanning session, animal temperature and respiration rate were monitored and controlled. PET studies were reconstructed using filtered-back projection (FBP) and Mediso’s iterative Tera-Tomo 3D reconstruction algorithm with the following settings: 4 iterations, 6 subsets, full detector model, normal regularization, spike filter on, voxel size 0.4 mm and 400‒600 keV energy window. PET data were corrected for randoms, scatter and attenuation. […] Then, PMOD’s contours interpolation tool was used to interpolate ROIs for each organ into a corresponding volume-of-interest (VOI). A static cuboidal VOI was also drawn to include the animal whole-body. Time-activity curves for each source organ, whole-body and remainder of the body were plotted. […] Residence times (τ) were determined for each radiotracer in source organs, whole-body and remaining (any activity assigned to the whole-body but not assigned to a source organ). Each preclinical source organ’s τ was determined by calculating the area under its respective time-activity curve (activity normalised to the percentage maximum injected dose as a function of time) using the trapezoid method. […] From each individual animal, eight dosimetry models were constructed from all possible combinations of image reconstruction method (FBP or iterative), τ (non-normalised or normalised to human organ masses), and sex of phantom (male or female).

[2] = OLINDA/EXM predicted clinical doses: adult male phantom, normalised τ, FBP; details: rat, in vivo
Protocol: (§2) PET studies were reconstructed using filtered-back projection (FBP) and Mediso’s iterative Tera-Tomo 3D reconstruction algorithm with the following settings: 4 iterations, 6 subsets, full detector model, normal regularization, spike filter on, voxel size 0.4 mm and 400‒600 keV energy window. PET data were corrected for randoms, scatter and attenuation. Time-activity curves for each source organ, whole-body and remainder of the body were plotted. […] Residence times (τ) were determined for each radiotracer in source organs, whole-body and remaining (any activity assigned to the whole-body but not assigned to a source organ). Each preclinical source organ’s τ was determined by calculating the area under its respective time-activity curve (activity normalised to the percentage maximum injected dose as a function of time) using the trapezoid method. […] From each individual animal, eight dosimetry models were constructed from all possible combinations of image reconstruction method (FBP or iterative), τ (non-normalised or normalised to human organ masses), and sex of phantom (male or female).

[3] = OLINDA/EXM predicted clinical doses: adult male phantom, normalised τ, iterative; details: rat, in vivo
Protocol: as §2, with “female). Supplementary table 11. Predicted clinical absorbed organ doses and whole-body effective doses of PET radiotracers using normalised adult male source organ residence times from iterative reconstructions.” for “female).”

[4] = Residence times in rat source organs from whole-body PET, iterative reconstruction; details: in vivo, iv
Protocol: as §1

NOTA-RGDfK [existing Al^18F-labelled NOTA-RGDfK peptide PET radiotracer; precursor NOTA-RGDfK (1)]
Residence Time (h), Average: Brain [1]: 0.00193 h
Residence Time (h), Average: Heart [1]: 0.00279 h
Residence Time (h), Average: Intestine [1]: 0.209 h
Residence Time (h), Average: Kidneys [1]: 0.029 h
Residence Time (h), Average: Liver [1]: 0.0207 h
Residence Time (h), Average: Lungs [1]: 0.00664 h
Residence Time (h), Average: Remaining [1]: 1.96 h
Residence Time (h), Average: Urinary Bladder [1]: 0.892 h
Effective Dose (mSv/MBq), Average ± SD [2]: 2.18E-02 mSv/MBq
Estimated Absorbed Dose of Organ, Average: Adrenals [2]: 1.10E-02 mGy/MBq
Estimated Absorbed Dose of Organ, Average: Brain [2]: 3.17E-03 mGy/MBq
Estimated Absorbed Dose of Organ, Average: Breasts [2]: 8.04E-03 mGy/MBq
Estimated Absorbed Dose of Organ, Average: Gallbladder Wall [2]: 1.15E-02 mGy/MBq
Estimated Absorbed Dose of Organ, Average: Heart Wall [2]: 1.15E-02 mGy/MBq
Estimated Absorbed Dose of Organ, Average: Kidneys [2]: 1.64E-02 § mGy/MBq
Estimated Absorbed Dose of Organ, Average: LLI Wall [2]: 5.79E-02 ‡ mGy/MBq
Estimated Absorbed Dose of Organ, Average: Liver [2]: 6.81E-03 mGy/MBq
Estimated Absorbed Dose of Organ, Average: Lungs [2]: 8.79E-03 mGy/MBq
Estimated Absorbed Dose of Organ, Average: Muscle [2]: 1.05E-02 mGy/MBq
Estimated Absorbed Dose of Organ, Average: Osteogenic Cells [2]: 1.53E-02 mGy/MBq
Estimated Absorbed Dose of Organ, Average: Pancreas [2]: 1.17E-02 mGy/MBq
Estimated Absorbed Dose of Organ, Average: Red Marrow [2]: 9.94E-03 mGy/MBq
Estimated Absorbed Dose of Organ, Average: Skin [2]: 7.88E-03 mGy/MBq
Estimated Absorbed Dose of Organ, Average: Small Intestine [2]: 1.40E-02 mGy/MBq
Estimated Absorbed Dose of Organ, Average: Spleen [2]: 1.09E-02 mGy/MBq
Estimated Absorbed Dose of Organ, Average: Stomach Wall [2]: 1.13E-02 mGy/MBq
Estimated Absorbed Dose of Organ, Average: Testes [2]: 1.18E-02 mGy/MBq
Estimated Absorbed Dose of Organ, Average: Thymus [2]: 9.99E-03 mGy/MBq
Estimated Absorbed Dose of Organ, Average: Thyroid [2]: 9.88E-03 mGy/MBq
Estimated Absorbed Dose of Organ, Average: Total Body [2]: 1.05E-02 mGy/MBq
Estimated Absorbed Dose of Organ, Average: ULI Wall [2]: 1.28E-02 mGy/MBq
Estimated Absorbed Dose of Organ, Average: Urinary Bladder Wall [2]: 1.16E-01 † mGy/MBq
Effective Dose [3]: 2.17E-02 mSv/MBq
Estimated Absorbed Dose of Organ, Adrenals [3]: 6.76E-03 mGy/MBq
Estimated Absorbed Dose of Organ, Brain [3]: 2.27E-03 mGy/MBq
Estimated Absorbed Dose of Organ, Breasts [3]: 4.34E-03 mGy/MBq
Estimated Absorbed Dose of Organ, Gallbladder Wall [3]: 7.11E-03 mGy/MBq
Estimated Absorbed Dose of Organ, Heart Wall [3]: 1.28E-02 mGy/MBq
Estimated Absorbed Dose of Organ, Kidneys [3]: 2.74E-02 ‡ mGy/MBq
Estimated Absorbed Dose of Organ, LLI Wall [3]: 5.51E-02 § mGy/MBq
Estimated Absorbed Dose of Organ, Liver [3]: 7.32E-03 mGy/MBq
Estimated Absorbed Dose of Organ, Lungs [3]: 6.59E-03 mGy/MBq
Estimated Absorbed Dose of Organ, Muscle [3]: 6.45E-03 mGy/MBq
Estimated Absorbed Dose of Organ, Osteogenic Cells [3]: 8.36E-03 mGy/MBq
Estimated Absorbed Dose of Organ, Pancreas [3]: 6.93E-03 mGy/MBq
Estimated Absorbed Dose of Organ, Red Marrow [3]: 6.11E-03 mGy/MBq
Estimated Absorbed Dose of Organ, Skin [3]: 4.44E-03 mGy/MBq
Estimated Absorbed Dose of Organ, Small Intestine [3]: 9.30E-03 mGy/MBq
Estimated Absorbed Dose of Organ, Spleen [3]: 6.39E-03 mGy/MBq
Estimated Absorbed Dose of Organ, Stomach Wall [3]: 6.44E-03 mGy/MBq
Estimated Absorbed Dose of Organ, Testes [3]: 8.41E-03 mGy/MBq
Estimated Absorbed Dose of Organ, Thymus [3]: 5.44E-03 mGy/MBq
Estimated Absorbed Dose of Organ, Thyroid [3]: 5.10E-03 mGy/MBq
Estimated Absorbed Dose of Organ, ULI Wall [3]: 8.07E-03 mGy/MBq
Estimated Absorbed Dose of Organ, Urinary Bladder Wall [3]: 1.75E-01 † mGy/MBq
Estimated Absorbed Dose, Total Body [3]: 6.69E-03 mGy/MBq
Residence Time (h), Average: Brain [4]: 0.00225 h
Residence Time (h), Average: Heart [4]: 0.00473 h
Residence Time (h), Average: Intestine [4]: 0.212 h
Residence Time (h), Average: Kidneys [4]: 0.0652 h
Residence Time (h), Average: Liver [4]: 0.0391 h
Residence Time (h), Average: Lungs [4]: 0.00647 h
Residence Time (h), Average: Remaining [4]: 0.996 h
Residence Time (h), Average: Urinary Bladder [4]: 1.44 h
